The target of test [1] is T1, Nitric oxide synthase, inducible (Mus musculus, UniProt P29477).
T1 sequence (P29477 whole entry): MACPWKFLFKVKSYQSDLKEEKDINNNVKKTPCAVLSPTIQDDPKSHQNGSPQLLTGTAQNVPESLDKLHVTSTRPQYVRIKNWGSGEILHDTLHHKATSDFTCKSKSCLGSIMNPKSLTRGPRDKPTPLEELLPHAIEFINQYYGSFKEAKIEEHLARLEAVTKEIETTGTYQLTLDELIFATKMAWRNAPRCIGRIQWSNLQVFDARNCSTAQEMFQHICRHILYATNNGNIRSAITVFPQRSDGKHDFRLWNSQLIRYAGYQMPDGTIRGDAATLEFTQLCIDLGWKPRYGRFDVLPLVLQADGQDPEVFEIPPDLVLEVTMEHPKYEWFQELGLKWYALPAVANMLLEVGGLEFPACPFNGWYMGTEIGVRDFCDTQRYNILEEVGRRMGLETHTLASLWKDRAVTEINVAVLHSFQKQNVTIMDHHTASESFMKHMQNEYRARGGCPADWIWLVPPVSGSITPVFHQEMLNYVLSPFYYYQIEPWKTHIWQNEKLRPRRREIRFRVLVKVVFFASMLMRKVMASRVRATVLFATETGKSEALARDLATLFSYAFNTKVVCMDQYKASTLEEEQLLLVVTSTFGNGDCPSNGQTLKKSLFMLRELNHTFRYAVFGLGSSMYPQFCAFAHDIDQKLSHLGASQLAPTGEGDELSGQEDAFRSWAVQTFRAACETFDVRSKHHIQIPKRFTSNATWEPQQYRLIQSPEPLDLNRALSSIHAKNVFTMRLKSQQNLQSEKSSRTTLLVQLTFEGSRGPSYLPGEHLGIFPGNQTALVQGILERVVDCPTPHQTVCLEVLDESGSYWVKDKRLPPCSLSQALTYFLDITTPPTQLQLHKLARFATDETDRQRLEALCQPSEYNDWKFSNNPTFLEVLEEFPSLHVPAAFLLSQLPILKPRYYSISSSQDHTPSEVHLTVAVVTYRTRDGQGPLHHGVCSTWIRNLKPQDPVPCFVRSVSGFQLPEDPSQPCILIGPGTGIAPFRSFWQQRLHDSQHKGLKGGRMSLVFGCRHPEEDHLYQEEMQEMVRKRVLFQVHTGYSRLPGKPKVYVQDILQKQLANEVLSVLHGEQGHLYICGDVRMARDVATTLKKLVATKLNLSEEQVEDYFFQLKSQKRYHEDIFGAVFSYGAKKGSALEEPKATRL
Description: Compound was tested for binding affinity against recombinant inducible nitric oxide synthase (iNOS) from mouse.

Test [2] deals with T2, Nitric oxide synthase 3 (Bos taurus, UniProt P29473).
T2 sequence (P29473 whole entry): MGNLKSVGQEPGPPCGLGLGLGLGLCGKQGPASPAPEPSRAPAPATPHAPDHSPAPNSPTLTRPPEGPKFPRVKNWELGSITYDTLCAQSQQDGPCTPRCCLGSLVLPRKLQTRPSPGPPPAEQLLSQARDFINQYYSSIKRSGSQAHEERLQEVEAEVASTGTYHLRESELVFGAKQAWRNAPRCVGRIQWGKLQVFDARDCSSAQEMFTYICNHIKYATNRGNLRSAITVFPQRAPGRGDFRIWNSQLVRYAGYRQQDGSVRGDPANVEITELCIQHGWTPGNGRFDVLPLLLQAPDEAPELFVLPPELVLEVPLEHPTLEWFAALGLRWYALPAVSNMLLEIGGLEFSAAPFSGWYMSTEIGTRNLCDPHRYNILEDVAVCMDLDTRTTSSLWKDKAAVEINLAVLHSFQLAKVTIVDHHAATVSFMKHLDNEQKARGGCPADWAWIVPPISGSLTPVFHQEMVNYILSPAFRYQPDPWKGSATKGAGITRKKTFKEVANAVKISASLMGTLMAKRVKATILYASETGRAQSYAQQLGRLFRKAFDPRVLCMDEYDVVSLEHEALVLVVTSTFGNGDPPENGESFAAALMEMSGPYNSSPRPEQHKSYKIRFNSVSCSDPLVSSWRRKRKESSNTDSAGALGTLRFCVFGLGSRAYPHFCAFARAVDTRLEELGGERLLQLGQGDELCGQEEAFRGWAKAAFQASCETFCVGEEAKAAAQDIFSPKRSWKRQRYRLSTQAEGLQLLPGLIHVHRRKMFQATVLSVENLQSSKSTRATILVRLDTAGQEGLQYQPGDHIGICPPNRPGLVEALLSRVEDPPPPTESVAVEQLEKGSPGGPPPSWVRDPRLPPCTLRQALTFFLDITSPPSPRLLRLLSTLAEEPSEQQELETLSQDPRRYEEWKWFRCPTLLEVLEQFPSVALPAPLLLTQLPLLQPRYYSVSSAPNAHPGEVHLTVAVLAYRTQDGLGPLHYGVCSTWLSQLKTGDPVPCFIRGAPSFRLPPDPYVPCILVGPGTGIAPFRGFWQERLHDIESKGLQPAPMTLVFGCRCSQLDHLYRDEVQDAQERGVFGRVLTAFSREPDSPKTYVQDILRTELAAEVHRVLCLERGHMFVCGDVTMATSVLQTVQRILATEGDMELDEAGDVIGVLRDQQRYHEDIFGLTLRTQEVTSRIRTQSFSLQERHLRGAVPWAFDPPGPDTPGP
As to the kind of experiment: Compound was tested for binding affinity against Endothelial nitric oxide synthase.

One may read the Ki as the dissociation constant of the complex between target and ligand, obtained from inhibition or displacement. Consider `C#CC/N=C(/N)NCCCC(N)C(=O)O` (stereo unspecified), for which the Ki in test [1] turned out to be 0.62 µM.

Consider `C=CCNC(=N)NCCCC(N)C(C)=O` (stereo unspecified), for which the results for the Ki in test [2] and in test [1] were 3.1 µM and 2.1 µM, respectively.

Regarding `CC/N=C(/N)NCCCC(N)C(=O)O` (stereo unspecified), the figures for the Ki in test [2] and in test [1] were 9.5 µM and 6.1 µM, respectively.

With `CCC/N=C(/N)NCCCC(N)C(=O)O` (stereo unspecified), in test [2], the Ki amounted to 8.5 µM.
